In patent US20050059626A1, “Methods of preventing and treating viral infections using immunomodulatory polynucleotide sequences” (priority 2000, published 2005):
Read-outs that look alike come from different tables or passages of the source.

Columns and labels:
[1] = test system: HSV-2 strain MS; experiment: Recurrent genital HSV-2 disease in guinea pigs; format: in vivo, Swiss Hartley guinea pigs
[2] = test system: influenza A/Mississippi (H3N2) virus; format: in vivo, mice; conditions: for Pulmonary virus titer (log10/lung) Mean / Pulmonary virus titer (log10/lung) in mouse no. 1 / Pulmonary virus titer (log10/lung) in mouse no. 2 / Pulmonary virus titer (log10/lung) in mouse no. 3 / Pulmonary virus titer (log10/lung) in mouse no. 4 / Pulmonary virus titer (log10/lung) in mouse no. 5: non-ISS = SEQ ID NO:10
[3] = test system: RSV A2; experiment: RSV lung titer in cotton rats after non-local (IP or SC) administration; format: in vivo, cotton rat (Sigmoden hispidis); conditions: for RSV titer (log10/g lung) Mean / RSV titer (log10/g lung) in cotton rat no. 1 / RSV titer (log10/g lung) in cotton rat no. 2 / RSV titer (log10/g lung) in cotton rat no. 3 / RSV titer (log10/g lung) in cotton rat no. 4 / RSV titer (log10/g lung) in CR no. 1 / RSV titer (log10/g lung) in CR no. 2 / RSV titer (log10/g lung) in CR no. 3 / RSV titer (log10/g lung) in CR no. 4: Non-ISS = SEQ ID NO:10
Description: Cotton rats, 50-100 g and 4-12 weeks old (Sigmoden hispidis) of either sex were used in these studies. All of the animals were descendants of two pair of cotton rats obtained in 1984 from the Small Animal Section of the Veterinary Research Branch, Division of Research Services, National Institutes of Health.
RSV strain A2 was purchased from the ATCC (ATCC VR26). Working stocks of this virus were prepared as described in detail by Wyde et al. (1995) Pediatr. Res. 38:543-550. ISS sequence tested for RSV experiments was 5′-[…]-3′ (SEQ ID NO:1) (phosphorothioate). Control, non-ISS sequences used were 5′-[…]-3′ (SEQ ID NO:9) (phosphorothioate) and 5′-[…]-3′ (SEQ ID NO:10) (phosphorothioate), as well as PBS.
RSV levels in virus pools and lung lavage fluids (L.F.) were determined using sterile 96-well, flat bottom tissue culture plates (Falcon 3072), serial 3-fold dilutions and 2% FCS-MEM as described in detail previously (Wyde et al., 1995). […] The amount of virus in virus pools was expressed as a median tissue culture infectious doses (TCID50/ml, log10). Titers of virus in L.F. were expressed as TCID50/g lung tissue (log10). The minimum detectable virus concentration in these assays was 1.3 log10 TCID50/ml (virus pools) or 1.6 log10 TCID50/g lung.
Twenty cotton rats were divided into 5 groups of 4 animals. Administered to these animals, either intraperitoneally (IP) or subcutaneously (SC), was PBS, immunostimulatory sequence (ISS) 5′-[…]-3′ (SEQ ID NO:1) or non-ISS sequence 5′-[…]-3′ (SEQ ID NO:10), each sequence at 150 μg/injection. On Day 0 each of these animals was […] IN with 100 TCID50 of RSV A2. Four days later each cotton rat was sacrificed. The lungs of each animal were removed, lavaged and assessed for RSV.

[4] = test system: HSV-2 strain 186; experiment: Vaginal HSV-2 lethal challenge in mice; format: in vivo, Swiss Webster mice
From the text: Outbred Swiss Webster mice, vaginally infected with HSV-2 strain 186, were used as a model of HSV infection. In these animals, the first indication of viral infection is hair loss and erythema (HLE) near the vagina occurring, on average, 5 days after inoculation. The next stage of infection is indicated by chronic wetness (CW) due to loss of bladder control, on average, 6 days after inoculation. A portion (about 50% of infected mice) of the animals develop hind limb paralysis (HLP) at approximately the same time point. Death, which is often preceded by evidence of CNS disease, occurs an average of 7-9 days after viral inoculation.
Mice were prepared for infection by an initial two-dose treatment with depopriven to synchronize cycles and to thin the vaginal epithelium. Vaginal mucous was removed by swabbing with calcium alginate, then a lethal challenge dose (determined by titration) of HSV-2 strain 186 was delivered by positive-displacement pipettor. Inoculated mice were randomly grouped into one of 4 treatment groups (n=15/group). Animals in group 1 received no treatment and served as a control for the study. Animals in the second and third groups were treated topically with 100 μg of an ISS-containing phosphorothioate oligonucleotide (5′-[…]-3′) (SEQ ID NO:1) suspended in phosphate-buffered saline (PBS). The groups were treated 2 or 6 hours after inoculation. As a vehicle control, group four was treated with PBS alone.
In another experiment, inoculated mice were randomly grouped into 8 treatment groups (n=16/group). Animals in the groups received treatments as outlined in Table 11 below. The groups were treated 2 hours after virus inoculation.

[5] = 50 μg IP Day −1, virus Day 0, lungs Day 4
[6] = 50 μg IP Day −3, virus Day 0, lungs Day 4
[7] = 150 μg IP Day −1, RSV Day 0, lungs Day 4
[8] = 150 μg IP Day −3, RSV Day 0, lungs Day 4
[9] = 150 μg SC Day −1, RSV Day 0, lungs Day 4
[10] = 150 μg SC Day −3, RSV Day 0, lungs Day 4
[11] = 100 μg topical 2 h post-inoculation (PI)
[12] = 100 μg topical 6 h post-inoculation (PI)

Substance: 5′-TGACTGTGAACGTTCGAGATGA-3′ [SEQ ID NO: 1]
- Frequency of recurrences (recurrent lesions) ([1]; 200 μg at 21 days PI (one group also days 42 and 63), ANOVA p=0.012): significant reduction in the frequency of recurrences
- Effect on frequency of viral shedding ([1]; single topical treatment 1 mg at day 21): unaffected
- Magnitude of viral shedding ([1]; single topical treatment 1 mg at day 21, vs control groups, p<0.001): significantly reduced
- Cumulative mean recurrent lesion days ([1]; single topical treatment 1 mg at day 21, vs non-ISS control or untreated): significantly decreased the cumulative mean recurrent lesion days
- Pulmonary virus titer (log10/lung) Mean [2, 5]: 6.8 log10/lung
- Pulmonary virus titer (log10/lung) in mouse no. 1 [2, 5]: 6.3 log10/lung
- Pulmonary virus titer (log10/lung) in mouse no. 2 [2, 5]: 6.8 log10/lung
- Pulmonary virus titer (log10/lung) in mouse no. 3 [2, 5]: 7.3 log10/lung
- Pulmonary virus titer (log10/lung) in mouse no. 4 [2, 5]: 6.8 log10/lung
- Pulmonary virus titer (log10/lung) in mouse no. 5 [2, 5]: 6.8 log10/lung
- Pulmonary virus titer (log10/lung) Mean [2, 6]: 6.9 log10/lung
- Pulmonary virus titer (log10/lung) in mouse no. 1 [2, 6]: 7.3 log10/lung
- Pulmonary virus titer (log10/lung) in mouse no. 2 [2, 6]: 5.8 log10/lung
- Pulmonary virus titer (log10/lung) in mouse no. 3 [2, 6]: 7.3 log10/lung
- Pulmonary virus titer (log10/lung) in mouse no. 4 [2, 6]: 6.8 log10/lung
- Pulmonary virus titer (log10/lung) in mouse no. 5 [2, 6]: 7.3 log10/lung
- Reduction in influenza virus titer compared to PBS ([2]; IP, 50 μg/mouse before viral infection): fails to cause a satisfactory significant reduction in virus titer
- RSV titer (log10/g lung) Mean [3, 7]: 3.6 log10/g lung
- RSV titer (log10/g lung) in cotton rat no. 1 [3, 7]: 3.8 log10/g lung
- RSV titer (log10/g lung) in cotton rat no. 2 [3, 7]: 3.3 log10/g lung
- RSV titer (log10/g lung) in cotton rat no. 3 [3, 7]: 3.3 log10/g lung
- RSV titer (log10/g lung) in cotton rat no. 4 [3, 7]: 3.8 log10/g lung
- RSV titer (log10/g lung) Mean [3, 8]: 3.7 log10/g lung
- RSV titer (log10/g lung) in cotton rat no. 1 [3, 8]: 3.3 log10/g lung
- RSV titer (log10/g lung) in cotton rat no. 2 [3, 8]: 3.8 log10/g lung
- RSV titer (log10/g lung) in cotton rat no. 3 [3, 8]: 3.8 log10/g lung
- RSV titer (log10/g lung) in cotton rat no. 4 [3, 8]: 3.8 log10/g lung
- RSV titer (log10/g lung) Mean [3, 9]: 4.0 log10/g lung
- RSV titer (log10/g lung) in CR no. 1 [3, 9]: 4 log10/g lung
- RSV titer (log10/g lung) in CR no. 2 [3, 9]: 4.5 log10/g lung
- RSV titer (log10/g lung) in CR no. 3 [3, 9]: 3.5 log10/g lung
- RSV titer (log10/g lung) in CR no. 4 [3, 9]: 4 log10/g lung
- RSV titer (log10/g lung) Mean [3, 10]: 4.1 log10/g lung
- RSV titer (log10/g lung) in CR no. 1 [3, 10]: 4 log10/g lung
- RSV titer (log10/g lung) in CR no. 2 [3, 10]: 4.5 log10/g lung
- RSV titer (log10/g lung) in CR no. 3 [3, 10]: 4 log10/g lung
- RSV titer (log10/g lung) in CR no. 4 [3, 10]: 4 log10/g lung
- Reduction in RSV viral titers compared to PBS ([3]; IP and SC administration of 150 μg): failed to cause a statistically significant reduction in viral titers
- Overall effect on HSV2 disease (incidence, survival, time to symptoms and death) ([4]; 100 μg topical 2 or 6 hours after inoculation): decreased incidence (i.e., individuals showing symptoms of HSV2 infection), improved survival and delays in both appearance of symptoms and time to death
- Incidence (%) [4, 11]: 60%
- Incidence (animals with symptoms/total) [4, 11]: 9/15
- Survival (%) [4, 11]: 40%
- Survival (survivors/total) [4, 11]: 6/15
- Time to Death [4, 11]: 12 days
- Time to Symptoms [4, 11]: 6.6 days
- Incidence (%) [4, 12]: 80%
- Survival (%) [4, 12]: 27%
- Survival (survivors/total) [4, 12]: 4/15
- Time to Death [4, 12]: 10.6 days
- Time to Symptoms [4, 12]: 5.75 days
- Change in average time to death ([4]; animals that died, treated two hours after infection): increased by an average of over two days
